System: NCI/ADR-RES complex spheroid viability
Assay: Anticancer human tumor NCI/ADR-RES cell line growth inhibition;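 as to viability, T/C: 100% = DMSO vehicle treated spheroids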
Settings: for IC50: curve of first compound; for viability, T/C: stronger effect = lower value
In short: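 Complex spheroids of tumor cells with HUVEC and human MSCs, exposed to iadademstat combined with other agents. Each agent tested in half-log steps from near clinical Cmax (else 10 microM top), DMSO ≤0.25%.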

[1] = second compound 0.1 µM, first compound 0.000316 µM
[2] = second compound 0.1 µM, first compound 0.001 µM
[3] = second compound 0.1 µM, first compound 0.00316 µM
[4] = second compound 0.1 µM, first compound 0.01 µM
[5] = second compound 0.1 µM, first compound 0.0316 µM
[6] = second compound 0.1 µM, first compound 0.1 µM
[7] = second compound 0.316 µM, first compound 0.000316 µM
[8] = second compound 0.316 µM, first compound 0.001 µM
[9] = second compound 0.316 µM, first compound 0.00316 µM
[10] = second compound 0.316 µM, first compound 0.01 µM
[11] = second compound 0.316 µM, first compound 0.0316 µM
[12] = second compound 0.316 µM, first compound 0.1 µM
[13] = second compound 1 µM, first compound 0.000316 µM
[14] = second compound 1 µM, first compound 0.001 µM
[15] = second compound 1 µM, first compound 0.00316 µM
[16] = second compound 1 µM, first compound 0.01 µM
[17] = second compound 1 µM, first compound 0.0316 µM
[18] = second compound 1 µM, first compound 0.1 µM
[19] = second compound 3.16 µM, first compound 0.000316 µM
[20] = second compound 3.16 µM, first compound 0.001 µM
[21] = second compound 3.16 µM, first compound 0.00316 µM
[22] = second compound 3.16 µM, first compound 0.01 µM
[23] = second compound 3.16 µM, first compound 0.0316 µM
[24] = second compound 3.16 µM, first compound 0.1 µM
[25] = second compound 10 µM, first compound 0.000316 µM
[26] = second compound 10 µM, first compound 0.001 µM
[27] = second compound 10 µM, first compound 0.00316 µM
[28] = second compound 10 µM, first compound 0.01 µM
[29] = second compound 10 µM, first compound 0.0316 µM
[30] = second compound 10 µM, first compound 0.1 µM

`CC(C)CC(NC(=O)C(Cc1ccccc1)NC(=O)c1cnccn1)B(O)O` (stereo not given) + NC1CC1c1ccc(-c2cccc(O)c2)cc1 was tested, and the IC50 (second compound 0.1 µM) was 0.0122 µM, the IC50 (second compound 0.316 µM) was 0.0127 µM and the IC50 (second compound 1 µM) was 0.0142 µM. For the same compound, the IC50 (second compound 3.16 µM) was 0.0122 µM, the IC50 (second compound 10 µM) was 0.0118 µM and the viability, T/C [1] was 110%. For the same compound, the viability, T/C [2] was 102%, the viability, T/C [3] was 92.2% and the viability, T/C [4] was 61%. The viability, T/C [5] was 6.87%, the viability, T/C [6] was 0.38% and the viability, T/C [7] was 103%. It also gave a viability, T/C [8] of 103%, a viability, T/C [9] of 94.6% and a viability, T/C [10] of 61.7%. It also gave a viability, T/C [11] of 6.88%, a viability, T/C [12] of 0.32% and a viability, T/C [13] of 106%. It also gave a viability, T/C [14] of 99.4%, a viability, T/C [15] of 93.5% and a viability, T/C [16] of 69%. It also gave a viability, T/C [17] of 7.3%, a viability, T/C [18] of 0.37% and a viability, T/C [19] of 97.6%. It also gave a viability, T/C [20] of 98.8%, a viability, T/C [21] of 87% and a viability, T/C [22] of 58.2%. It also gave a viability, T/C [23] of 14.1%, a viability, T/C [24] of 0.23% and a viability, T/C [25] of 90.5%. For the same compound, the viability, T/C [26] was 88.8%, the viability, T/C [27] was 75.4% and the viability, T/C [28] was 59.6%. It also gave a viability, T/C [29] of 8.55% and a viability, T/C [30] of 0.36%.
Work on `CC(C)CC(NC(=O)CNC(=O)c1cc(Cl)ccc1Cl)B1OC(=O)CC(CC(=O)O)(C(=O)O)O1` (stereo not given) + NC1CC1c1ccc(-c2cccc(O)c2)cc1 yielded an IC50 (second compound 0.1 µM) of 0.0236 µM, an IC50 (second compound 0.316 µM) of 0.0238 µM and an IC50 (second compound 1 µM) of 0.0259 µM. The IC50 (second compound 3.16 µM) was 0.0195 µM, the IC50 (second compound 10 µM) was 0.0177 µM and the viability, T/C [1] was 101%. The viability, T/C [2] was 108%, the viability, T/C [3] was 97.9% and the viability, T/C [4] was 84.5%. It also gave a viability, T/C [5] of 38.3%, a viability, T/C [6] of 2.37% and a viability, T/C [7] of 109%. For the same compound, the viability, T/C [8] was 104%, the viability, T/C [9] was 102% and the viability, T/C [10] was 81.3%. The viability, T/C [11] was 39.8%, the viability, T/C [12] was 2.3% and the viability, T/C [13] was 97.3%. The viability, T/C [14] was 93.8%, the viability, T/C [15] was 96.2% and the viability, T/C [16] was 81.3%. The viability, T/C [17] was 43.4%, the viability, T/C [18] was 3.84% and the viability, T/C [19] was 101%. It also gave a viability, T/C [20] of 94.7%, a viability, T/C [21] of 88.9% and a viability, T/C [22] of 80.4%. For the same compound, the viability, T/C [23] was 28.5%, the viability, T/C [24] was 4.76% and the viability, T/C [25] was 90.3%. The viability, T/C [26] was 88.9%, the viability, T/C [27] was 81% and the viability, T/C [28] was 64.9%. It also gave a viability, T/C [29] of 34.9% and a viability, T/C [30] of 2.76%.
Work on `COc1cc(Nc2ncc3c(n2)-c2ccc(Cl)cc2C(c2c(F)cccc2OC)=NC3)ccc1C(=O)O` + NC1CC1c1ccc(-c2cccc(O)c2)cc1 yielded an IC50 (second compound 0.1 µM) of 0.0169 µM, an IC50 (second compound 0.316 µM) of 0.0183 µM and an IC50 (second compound 1 µM) of 0.0176 µM. It also gave an IC50 (second compound 3.16 µM) of 0.0195 µM, an IC50 (second compound 10 µM) of 0.0171 µM and a viability, T/C [3] of 86%. For the same compound, the viability, T/C [4] was 64.9%, the viability, T/C [5] was 32.5% and the viability, T/C [6] was 16%. For the same compound, the viability, T/C (second compound 0.1 µM, first compound 0.316 µM) was 15.4%, the viability, T/C (second compound 0.1 µM, first compound 1 µM) was 14.4% and the viability, T/C [9] was 93.5%. For the same compound, the viability, T/C [10] was 65.8%, the viability, T/C [11] was 36.7% and the viability, T/C [12] was 18%. It also gave a viability, T/C (second compound 0.316 µM, first compound 0.316 µM) of 15.7%, a viability, T/C (second compound 0.316 µM, first compound 1 µM) of 17.3% and a viability, T/C [15] of 89.7%. It also gave a viability, T/C [16] of 62.2%, a viability, T/C [17] of 38.1% and a viability, T/C [18] of 19.7%. For the same compound, the viability, T/C (second compound 1 µM, first compound 0.316 µM) was 14.4%, the viability, T/C (second compound 1 µM, first compound 1 µM) was 12% and the viability, T/C [21] was 88.6%. It also gave a viability, T/C [22] of 63.6%, a viability, T/C [23] of 41.8% and a viability, T/C [24] of 19.4%. The viability, T/C (second compound 3.16 µM, first compound 0.316 µM) was 15.9%, the viability, T/C (second compound 3.16 µM, first compound 1 µM) was 11.8% and the viability, T/C [27] was 79.2%. It also gave a viability, T/C [28] of 57.8%, a viability, T/C [29] of 41.2% and a viability, T/C [30] of 23.6%. For the same compound, the viability, T/C (second compound 10 µM, first compound 0.316 µM) was 13% and the viability, T/C (second compound 10 µM, first compound 1 µM) was 11.9%.

Reference: PubChem BioAssay AID1918955 (Molecular Pharmacology Branch, DTP, NCI, 2023)
